Source: patent publication US20070129288A1, “Antibacterial amide macrocycles” (BAYER HEALTHCARE AG, priority 2002, published 2007)
In brackets after ≈: the same amount, converted by molar mass. Counter-ions that a name gives are not always drawn. Like-named read-outs stand apart in the source and are kept apart here.

Assays:
B. catarrhalis M3 = assay: Minimum inhibitory concentration (MIC), liquid dilution test; format: cell-based; settings: Moraxella catarrhalis, minimal medium with 0.4% BH broth, 37° C., 18-24 h
Procedure: (§1) Determination of the Minimum Inhibitory Concentration (MIC):
(§2) The minimum inhibitory concentration (MIC) is the minimum concentration of an antibiotic with which the growth of a test microbe is inhibited over 18-24 h. The inhibitor concentration can in these cases be determined by standard microbiological methods (see, for example, The National Committee for Clinical Laboratory Standards. Methods for dilution antimicrobial susceptibility tests for bacteria that grow aerobically; approved standard-fifth edition. NCCLS document M7-A5 [ISBN 1-56238-394-9]. NCCLS, 940 West Valley Road, Suite 1400, Wayne, Pa. 19087-1898 USA, 2000). The MIC of the compounds of the invention is determined in the liquid dilution test on the 96-well microtiter plate scale. The bacterial microbes are cultivated in a minimal medium (18.5 mM Na2HPO4, 5.7 mM KH2PO4, 9.3 mM NH4Cl, 2.8 mM MgSO4, 17.1 mM NaCl, 0.033 μg/ml thiamine hydrochloride, 1.2 μg/ml nicotinic acid, 0.003 μg/ml biotin, 1% glucose, 25 μg/ml of each proteinogenic amino acid with the exception of phenylalanine; [H.-P. Kroll; unpublished]) with addition of 0.4% BH broth (test medium). In the case of Enterococcus faecalis ICB 27159, heat-inactivated fetal calf serum (FCS; GibcoBRL, Germany) is added to the test medium in a final concentration of 10%. Overnight cultures of the test microbes are diluted to an OD578 of 0.001 (to 0.01 in the case of Enterococci) in fresh test medium, and incubated 1:1 with dilutions of the test substances (1:2 dilution steps) in test medium (150 μl final volume). The cultures are incubated at 37° C. for 18-24 hours; Enterococci in the presence of 5% CO2.
(§3) The lowest substance concentration in each case at which bacterial growth was no longer visible is defined as the MIC. […] The compounds show a graded antibacterial effect against most of the test microbes.

[1] = test system: Enterococcus faecalis ICB 27159; assay: as above; format: cell-based; settings: ICB27159, test medium with 10% FCS, 5% CO2, 37° C., 18-24 h, read-out: MIC E. faecalis ICB27159
Procedure: as §1, §2, §3

S. aureus 133 [2] = assay: as above; format: cell-based
Procedure: as §1, §2, §3

S. aureus 25701 = assay: as above; format: cell-based; settings: Staphylococcus aureus, minimal medium with 0.4% BH broth, 37° C., 18-24 h
Procedure: as §1, §2, §3

S. aureus RN4220 = assay: as above; format: cell-based; settings: Staphylococcus aureus, minimal medium with 0.4% BH broth, 37° C., 18-24 h
Procedure: as §1, §2, §3

[3] = test system: translation of firefly luciferase, Escherichia coli MRE 600 S30 extract; assay: In vitro transcription-translation with E. coli extracts; format: biochemical; settings: plasmid pBESTLuc, 30° C., 60 min, luciferase luminescence, read-out: IC50 E. coli MRE600 Translation
Procedure: In vitro Transcription-translation with E. coli Extracts
An S30 extract is prepared by harvesting logarithmically growing Escherichia coli MRE 600 (M. Müller; University Freiburg), washing and employing them as described for the in vitro transcription-translation assay (Müller, M. and Blobel, G. Proc Natl Acad Sci USA (1984) 81, pp. 7421-7425).
1 μl of cAMP (11.25 mg/ml) are additionally added per 50 μl of reaction mix to the reaction mix for the in vitro transcription-translation assay. The assay mixture amounts to 105 μl, with 5 μl of the substance to be tested being introduced in 5% strength DMSO. 1 μg/100 μl of mixture of the plasmid pBESTLuc (Promega, Germany) are used as transcription template. After incubation at 30° C. for 60 min, 50 μl of luciferin solution (20 mM tricine, 2.67 mM MgSO4, 0.1 mM EDTA, 33.3 mM DTT pH 7.8, 270 μM CoA, 470 μM luciferin, 530 μM ATP) are added, and the resulting bioluminescence is measured in a luminometer for 1 minute. The IC50 is indicated by the concentration of an inhibitor which leads to 50% inhibition of the translation of firefly luciferase.

[4] = molecular target: translation of firefly luciferase, S. aureus 133 S30 extract; assay: In vitro transcription-translation with S. aureus extracts; format: biochemical; settings: reporter plasmid pla, 30° C., 60 min, luciferase luminescence
From the text: (§4) In vitro Transcription-translation with S. aureus Extracts
(§5) Construction of an S. aureus Luciferase Reporter Plasmid
(§6) A reporter plasmid which can be used in an in vitro transcription-translation assay for S. aureus is constructed by using the plasmid pBESTluc (Promega Corporation, USA). The E. coli tac promoter present in this plasmid in front of the firefly luciferase is replaced by the capAl promoter with appropriate Shine-Dalgarno sequence from S. aureus. The primers CAPFor 5′-[…] […]-3′ and CAPRev 5′-[…]-3′ are used for this. The primer CAPFor contains the capAl promoter, the ribosome binding site and the 5′ region of the luciferase gene. After PCR using pBESTluc as template it is possible to isolate a PCR product which contains the firefly luciferase gene with the fused capAl promoter. This is, after restriction with Clal and HindIII, ligated into the vector pBESTluc which has likewise been digested with ClaI and HindIII. The resulting plasmid pla is able to replicate in E. coli and be used as template in the S. aureus in vitro transcription-translation assay.
(§7) Preparation of S30 Extracts from S. aureus
(§8) Six liters of BHI medium are inoculated with a 250 ml overnight culture of an S. aureus strain and allowed to grow at 37° C. until the OD600 nm is 2-4. The cells are harvested by centrifugation and washed in 500 ml of cold buffer A (10 mM Tris acetate, pH 8.0, 14 mM Mg acetate, 1 mM DTT, 1 M KCl). After renewed centrifugation, the cells are washed in 250 ml of cold buffer A with 50 mM KCl, and the resulting pellets are frozen at −20° C. for 60 min. The pellets are thawed on ice in 30 to 60 min and taken up to a total volume of 99 ml in buffer B (10 mM Tris acetate, pH 8.0, 20 mM Mg acetate, 1 mM DTT, 50 mM KCl). 1.5 ml portions of lysostaphin (0.8 mg/ml) in buffer B are introduced into 3 precooled centrifuge cups and each mixed with 33 ml of the cell suspension. The samples are incubated at 37° C., shaking occasionally, for 45 to 60 min, before 150 μl of a 0.5 M DTT solution are added. The lyzed cells are centrifuged at 30 000×g and 4° C. for 30 min. The cell pellet is taken up in buffer B and then centrifuged again under the same conditions, and the collected supernatants are combined. The supernatants are centrifuged again under the same conditions, and 0.25 volume of buffer C (670 mM Tris acetate, pH 8.0, 20 mM Mg acetate, 7 mM Na3 phosphenolpyruvate, 7 mM DTT, 5.5 mM ATP, 70 μM amino acids (complete from Promega), 75 μg of pyruvate kinase (Sigma, Germany)/ml are added to the upper 2/3 of the supernatant. The samples are incubated at 37° C. for 30 min. The supernatants are dialyzed against 2 l of dialysis buffer (10 mM Tris acetate, pH 8.0, 14 mM Mg acetate, 1 mM DTT, 60 mM K acetate) in a dialysis tube with a 3500 Da cut-off with one buffer change at 4° C. overnight. The dialysate is concentrated to a protein concentration of about 10 mg/ml by covering the dialysis tube with cold PEG 8000 powder (Sigma, Germany) at 4° C. The S30 extracts can be stored in aliquots at −70° C.
(§9) Determination of the IC50 in the S. aureus in vitro Transcription-translation Assay
(§10) Inhibition of protein biosynthesis of the compounds can be shown in an in vitro transcription-translation assay. The assay is based on the cell-free transcription and translation of firefly luciferase using the reporter plasmid pla as template and cell-free S30 extracts obtained from S. aureus. The activity of the resulting luciferase can be detected by luminescence measurement. […]

[5] = molecular target: translation of firefly luciferase, S. aureus RN4220 S30 extract; assay: as above; format: biochemical; settings: reporter plasmid pla, 30° C., 60 min, luciferase luminescence
From the text: as §4, §5, §6, §7, §8, §9, §10

S. aureus 133 [6] = assay: Systemic infection with S. aureus 133 (mouse sepsis model); format: in vivo; settings: female CFW1 mice, i.p. infection, i.v. therapy 30 minutes after infection, survival recorded for 6 days
Procedure: Systemic Infection with S. aureus 133
The suitability of the compounds of the invention for treating bacterial infections can be shown in various animal models. For this purpose, the animals are generally infected with a suitable virulent microbe and then treated with the compound to be tested, which is in a formulation which is adopted to the particular therapy model.
For this purpose, S. aureus 133 cells are cultured overnight in BH broth (Oxoid, Germany). The overnight culture is diluted 1:100 in fresh BH broth and expanded for 3 hours. The bacteria which are in the logarithmic phase of growth are centrifuged and washed 2× with buffered physiological saline solution. A cell suspension in saline solution with an extinction of 50 units is then adjusted in a photometer (Dr. Lange LP 2W). After a dilution step (1:15), this suspension is mixed 1:1 with a 10% strength mucine suspension. 0.2 ml of this infection solution is administered i.p. per 20 g of mouse. This corresponds to a cell count of about 1-2×10E6 microbes/mouse. The i.v. therapy takes place 30 minutes after the infection. Female CFW1 mice are used for the infection test. The survival of the animals is recorded for 6 days. The animal model is adjusted so that untreated animals die within 24 h after the infection.

[7] = Staphylococcus aureus, 133, read-out: MIC S. aureus 133

SMILES	MIC (B. catarrhalis M3) [µM]	MIC [1] [µM]	MIC (S. aureus 133 [2]; [7]) [µM]	MIC (S. aureus 25701) [µM]	MIC (S. aureus RN4220) [µM]	IC50 [3] [nM]	IC50 [4] [nM]	IC50 [5] [nM]	therapeutic effect ED100 (S. aureus 133 [6]) [mg/kg]	MIC (S. aureus 133 [2]; Staphylococcus aureus, 133, minimal medium with 0.4% BH broth, 37° C., 18-24 h, read-out: MIC S. aureus 133) [µM]
NC[C@H](O)C[C@@H]1NC(=O)[C@@H](N)Cc2cc(ccc2O)-c2ccc(O)c(c2)C[C@@H](C(N)=O)NC1=O [Example 1, (8S,11S,14S)-14-Amino-11-[(2R)-3-amino-2-hydroxypropyl]-5,17-dihydroxy-10,13-dioxo-9,12-diazatricyclo[14.3.1.1^2,6]henicosa-1(20),2(21),3,5,16,18-hexaene-8-carboxamide dihydrochloride]	1.56	6.25	0.2	6.25	0.1	150	900	500	–	–
NC[C@H](O)C[C@@H]1NC(=O)[C@@H](N)Cc2cc(ccc2O)-c2ccc(O)c(c2)C[C@@H](C(=O)NCc2ccccc2)NC1=O [Example 2, (8S,11S,14S)-14-Amino-11-[(2R)-3-amino-2-hydroxypropyl]-N-benzyl-5,17-dihydroxy-10,13-dioxo-9,12-diazatricyclo[14.3.1.1^2,6]henicosa-1(20),2(21),3,5,16,18-hexaene-8-carboxamide dihydrochloride]	25	25	25	50	12.5	550	1300 to 4500	3400	1.25	–
NC[C@H](O)C[C@@H]1NC(=O)[C@@H](N)Cc2cc(ccc2O)-c2ccc(O)c(c2)C[C@@H](C(=O)NCC(N)=O)NC1=O [Example 37]	–	–	–	–	–	–	500	–	–	0.8 (≈ 0.423 µg/mL)
